Results taken from patent US20250092031A1, “RIPK3 INHIBITORS AND METHODS OF USE” (Momentum Therapeutics, Inc., priority 2023, published 2025).

Legend:
Human HT-29 cells = assay: Necroptosis inhibition assay in HT-29 cells (hTNFα + zVAD + SMAC mimetic, Sytox Green/Hoechst); type: cell-based; details: 10 ng/ml hTNFα, 20 μM zVAD and 100 nM SMAC mimetic, 6 hours, Sytox/Hoechst positive cells, read-out: HT29 necroptosis inhibition IC50
Description: Human HT-29 cells (ATCC-HTB-38) were seeded at 10,000 cells/well in a 96-well plate. Cells were treated 48 hours after seeding with 10 ng/ml hTNFα (R&D Systems), 20 μM zVAD (ChemShuttle) and 100 nM SMAC mimetic (MedChem Express) in the presence of different concentrations of compounds ranging from […] to 0.01 μM. Cells treated with 0.1% DMSO or cells treated with TNFα+zVAD+SMAC mimetic were used as control and vehicle respectively.
Assay plates containing cells were incubated for 6 hours at 37° C. and 5% CO2. Necroptosis was assessed using Sytox Green Nucleic Acid Stain (Invitrogen) and Hoechst staining. After incubation, 100 μL of Sytox dye at 2 μM (2×) diluted in HBSS 1× was added to each well. At the same time, Hoechst stain is added to a final concentration of 10 μM and incubated for 15 min at room temperature. Images were taken for Sytox and Hoechst using the Cytation 5 microplate reader with DAPI and GFP filter cubes (Biotek). Sytox and Hoechst positive cells were counted with CellProfiler software.
(§1) Percentage of necroptosis inhibition was calculated as the percent compared to control and vehicle conditions which correspond to 100% and 0% respectively. The half-maximum necroptosis inhibition (IC50) levels were calculated using GraphPad Prism software and are shown in Table 3 (NT represents compound not tested).

Murine L929 cells = assay: Necroptosis inhibition assay in L929 cells (mTNFα + zVAD, Sytox Green); type: cell-based; details: Mus musculus, 10 ng/ml mTNFα and 20 μM zVAD, 6 hours, Sytox Green fluorescence
Description: Murine L929 cells (ATCC-CCL-1) were seeded at 10,000 cells/well in a 96-well plate. Cells were treated 48 hours after seeding with 10 ng/ml mTNFα (R&D Systems) and 20 μM zVAD (ChemShuttle) in the presence of different concentrations of compounds ranging from […] to 0.01 μM. Cells treated with 0.1% DMSO or cells treated with TNFα+zVAD were used as control and vehicle respectively.
Assay plates containing cells were incubated for 6 hours at 37° C. and 5% CO2. Necroptosis was assessed using Sytox Green Nucleic Acid Stain (Invitrogen). After incubation, 100 μL of Sytox dye at 2 μM (2×) diluted in HBSS 1× was added in each well and incubated for 15 min at room temperature. Fluorescence (500ex/530em) was recorded using the Cytation 5 microplate reader (Biotek).
as §1

Row | SMILES | IC50 (Human HT-29 cells) | IC50 (Murine L929 cells)
1 | Fc1cc(CN2CC3CNCC3C2)ccc1-c1ccc2nccc(Nc3ccc4scnc4c3)c2c1 (centres unmarked) [Compound 299, N-(6-(2-fluoro-4-((hexahydropyrrolo[3,4-c]pyrrol-2(1H)-yl)methyl)phenyl)quinolin-4-yl)benzo[d]thiazol-5-amine] | 462 nM | 987 nM
2 | Fc1cc(CN2CC3CNCC3C2)ccc1-c1ccc2c(Nc3ccc4scnc4c3)ccnc2c1 (centres unmarked) [Compound 300, N-(7-(2-fluoro-4-((hexahydropyrrolo[3,4-c]pyrrol-2(1H)-yl)methyl)phenyl)quinolin-4-yl)benzo[d]thiazol-5-amine] | 721 nM | 461 nM
3 | O=C(c1ccc(-c2ccc3c(Nc4ccc5scnc5c4)ccnc3c2)c(F)c1)N1C[C@@H]2C[C@H]1CN2 [Compound 301, (4-(4-(benzo[d]thiazol-5-ylamino)quinolin-7-yl)-3-fluorophenyl)((1S,4S)-2,5-diazabicyclo[2.2.1]heptan-2-yl)methanone] | 197 nM | 427 nM
4 | O=C(c1ccc(-c2ccc3c(Nc4ccc5scnc5c4)ccnc3c2)cc1F)N1CC2CNCC2C1 (centres unmarked) [Compound 303, (4-(4-(benzo[d]thiazol-5-ylamino)quinolin-7-yl)-2-fluorophenyl)(hexahydropyrrolo[3,4-c]pyrrol-2(1H)-yl)methanone] | 690 nM | 977 nM
5 | O=C(c1ccc(-c2ccc3nccc(Nc4ccc5scnc5c4)c3c2)cc1F)N1CC2CNCC2C1 (centres unmarked) [Compound 305, (4-(4-(benzo[d]thiazol-5-ylamino)quinolin-6-yl)-2-fluorophenyl)(hexahydropyrrolo[3,4-c]pyrrol-2(1H)-yl)methanone] | 402 nM | > 10000 nM
6 | O=C(c1ccc(-c2ccc3nccc(Nc4ccc5scnc5c4)c3c2)c(F)c1)N1C[C@H]2CNC[C@H]2C1 [Compound 306, (4-(4-(benzo[d]thiazol-5-ylamino)quinolin-6-yl)-3-fluorophenyl)((3aR,6aS)-hexahydropyrrolo[3,4-c]pyrrol-2(1H)-yl)methanone] | 148 nM | < 10000 nM
7 | O=C(c1ccc(-c2ccc3c(Nc4ccc5scnc5c4)ccnc3c2)c(F)c1)N1C[C@H]2CNC[C@H]2C1 [Compound 307, (4-(4-(benzo[d]thiazol-5-ylamino)quinolin-7-yl)-3-fluorophenyl)((3aR,6aS)-hexahydropyrrolo[3,4-c]pyrrol-2(1H)-yl)methanone] | 271 nM | 774 nM
8 | NC1CN(C(=O)c2ccc(-c3ccc4c(Nc5ccc6scnc6c5)ccnc4c3)c(F)c2)C1 [Compound 310, (3-aminoazetidin-1-yl)(4-(4-(benzo[d]thiazol-5-ylamino)quinolin-7-yl)-3-fluorophenyl)methanone] | 294 nM | 663 nM
9 | Fc1cc(OC2CC3(CNC3)C2)ccc1-c1ccc2nccc(Nc3ccc4scnc4c3)c2c1 [Compound 311, N-(6-(4-(2-azaspiro[3.3]heptan-6-yloxy)-2-fluorophenyl)quinolin-4-yl)benzo[d]thiazol-5-amine] | 732 nM | 1030 nM
10 | O=C(c1ccc(-c2ccc3c(Nc4ccc5scnc5c4)ccnc3c2)c(Cl)c1)N1CC2(CNC2)C1 [Compound 312, (4-(4-(benzo[d]thiazol-5-ylamino)quinolin-7-yl)-3-chlorophenyl)(2,6-diazaspiro[3.3]heptan-2-yl)methanone] | 1560 nM | 668 nM
11 | O=C(c1ccc(-c2ccc3c(Nc4ccc5scnc5c4)ccnc3c2)c(F)c1)N1[C@@H]2CNC[C@H]1C2 [Compound 313, (4-(4-(benzo[d]thiazol-5-ylamino)quinolin-7-yl)-3-fluorophenyl)((1R,5S)-3,6-diazabicyclo[3.1.1]heptan-6-yl)methanone] | 302 nM | 402 nM
12 | CN1CCN(C(=O)c2ccc(-c3ccc4nccc(Nc5ccc6scnc6c5)c4c3)c(F)c2)CC1(C)C [Compound 315, (4-(4-(benzo[d]thiazol-5-ylamino)quinolin-6-yl)-3-fluorophenyl)(3,3,4-trimethylpiperazin-1-yl)methanone] | 120 nM | 396 nM
13 | CS(=O)(=O)N1CC2(CN(C(=O)c3ccc(-c4ccc5nccc(Nc6ccc7scnc7c6)c5c4)c(F)c3)C2)C1 [Compound 316, (4-(4-(benzo[d]thiazol-5-ylamino)quinolin-6-yl)-3-fluorophenyl)(6-(methylsulfonyl)-2,6-diazaspiro[3.3]heptan-2-yl)methanone] | 269 nM | 1580 nM
14 | O=C(c1ccc(-c2ccc3nccc(Nc4ccc5scnc5c4)c3c2)c(F)c1)N1CCC(O)CC1 [Compound 317, (4-(4-(benzo[d]thiazol-5-ylamino)quinolin-6-yl)-3-fluorophenyl)(4-hydroxypiperidin-1-yl)methanone] | 169 nM | 707 nM
15 | CC1(O)CCN(C(=O)c2ccc(-c3ccc4nccc(Nc5ccc6scnc6c5)c4c3)c(F)c2)CC1 [Compound 318, (4-(4-(benzo[d]thiazol-5-ylamino)quinolin-6-yl)-3-fluorophenyl)(4-hydroxy-4-methylpiperidin-1-yl)methanone] | 53.7 nM | 686 nM
16 | CC1(O)CCN(Cc2ccc(-c3ccc4nccc(Nc5ccc6scnc6c5)c4c3)c(F)c2)CC1 [Compound 319, 1-(4-(4-(benzo[d]thiazol-5-ylamino)quinolin-6-yl)-3-fluorobenzyl)-4-methylpiperidin-4-ol] | 284 nM | 301 nM
17 | CNC(=O)CNCc1ccc(-c2ccc3nccc(Nc4ccc5scnc5c4)c3c2)c(F)c1 [Compound 320, 2-((4-(4-(benzo[d]thiazol-5-ylamino)quinolin-6-yl)-3-fluorobenzyl)amino)-N-methylacetamide] | 243 nM | 444 nM
18 | COC1CCN(C(=O)c2ccc(-c3ccc4nccc(Nc5ccc6scnc6c5)c4c3)c(F)c2)CC1 [Compound 321, (4-(4-(benzo[d]thiazol-5-ylamino)quinolin-6-yl)-3-fluorophenyl)(4-methoxypiperidin-1-yl)methanone] | 109 nM | 238 nM
19 | O=C(c1ccc(-c2cc3c(Nc4ccc5scnc5c4)ccnc3cc2F)c(F)c1)N1CCOCC1 [Compound 322, (4-(4-(benzo[d]thiazol-5-ylamino)-7-fluoroquinolin-6-yl)-3-fluorophenyl)(morpholino)methanone] | 111 nM | 175 nM
20 | Fc1cc(CN2CC3(CNC3)C2)ccc1-c1ccc2c(Nc3ccc4scnc4c3)ccnc2c1 [Compound 323, N-(7-(4-((2,6-diazaspiro[3.3]heptan-2-yl)methyl)-2-fluorophenyl)quinolin-4-yl)benzo[d]thiazol-5-amine] | 296 nM | 454 nM
21 | O=C(c1ccc(-c2ccc3nccc(Nc4ccc5scnc5c4)c3c2)c(F)c1)N1CC2(COC2)C1 [Compound 324, (4-(4-(benzo[d]thiazol-5-ylamino)quinolin-6-yl)-3-fluorophenyl)(2-oxa-6-azaspiro[3.3]heptan-6-yl)methanone] | 76.5 nM | 223 nM
22 | O=C(NC1CCOCC1)c1ccc(-c2ccc3nccc(Nc4ccc5scnc5c4)c3c2)c(F)c1 [Compound 325, 4-(4-(benzo[d]thiazol-5-ylamino)quinolin-6-yl)-3-fluoro-N-(tetrahydro-2H-pyran-4-yl)benzamide] | 69.7 nM | 665 nM
23 | O=C(c1ccc(-c2ccc3nccc(Nc4ccc5scnc5c4)c3c2)cn1)N1CCOCC1 [Compound 326, (5-(4-(benzo[d]thiazol-5-ylamino)quinolin-6-yl)pyridin-2-yl)(morpholino)methanone] | 305 nM | 1790 nM
24 | CN1CCN(Cc2ccc(-c3ccc4c(Nc5ccc6scnc6c5)ccnc4c3)c(F)c2)CC1=O [Compound 327, 4-(4-(4-(benzo[d]thiazol-5-ylamino)quinolin-7-yl)-3-fluorobenzyl)-1-methylpiperazin-2-one] | 25.2 nM | 160 nM
25 | CC(C)S(=O)(=O)c1ccc2nccc(Nc3ccc4scnc4c3)c2c1 [Compound A, N-(6-(isopropylsulfonyl)quinolin-4-yl)benzo[d]thiazol-5-amine, reference compound] | 1260 nM | 1960 nM
